1 molecule from patent publication US10918753B2, “Use of ozone to control bioburden in precipitated calcium carbonate slurry (PCC)” (Colgate-Palmolive Company, priority 2014, dated 2021) can be followed below.

In this assay the test system is gram negative and gram positive bacilli. Description: Ozone treatment of precipitated calcium carbonate slurry; bioburden / log reduction of bacteria at sampling points. Format: cell-based. On the procedure: A precipitated calcium carbonate slurry was prepared as shown FIG. 1. At the precipitation phase of the “Region of High Microbial Growth”, FIG. 1), the slurry was contaminated with gram negative and gram positive bacilli. The shiny was then continuously transferred from a precipitation tank (not shown) to a neutralization tank (100). Upon entry into the neutralization tank, the slurry was neutralized using carbon dioxide. A sample was collected from the neutralization tank to assess the initial bioburden of the slurry (3.6×10^6 CFU/g). After neutralization, 3.5 or 5 ppm (depending on trial) of ozone was injected into the slurry after circulation through the pump (120) (FIG. 3). […] The pH of the slurry in the neutralization tank ranged from 6.9 to 8.3 and the temperature ranged from 24° C. to 46° C.
The degree of log reduction in bacteria was sampled at sampling point 1 (160) (FIG. 3) at time zero and every five minutes up to 40 minutes. As depicted in Table 1, below, a 1-2 log reduction of bacteria was observed after 40 minutes under recirculation.
A precipitated calcium carbonate slurry was prepared according to Example 1. Five trials were conducted. The ozone was injected as described in Example 1 at a concentration ranging from 5 ppm to 25 ppm. Samples were taken after 40 minutes of recirculation, 40 minutes after ozone contact with the slurry in the neutralization tank (100) or immediately after the slurry passed through the static mixer (140) as shown in FIG. 3. […] This difference is log reduction may be attributable to the mixing of ozone-treated slurry in the neutralization tank (100) with the non-treated slurry from the precipitation tank (not shown).
The sampling variability was confirmed in further trials by assessing the ozone concentration before and after ozone treatment and assessing the bioburden from samples taken at sampling point 1 (160) or sampling point 2 (150). In one trial, an initial bioburden (without ozone) of a sample collected from the slurry tank was 3.6×10^6 CFU/g. After an ozone injection at a 5 ppm concentration, the amount of bioburden was reduced to 1.7×10^4 CFU/g after 40 minutes recirculation. […] However, when a sample in the third trial was collected and tested at sampling point 2 (150) a few seconds after ozone injection, the bioburden was less than 10 CFU/g. Accordingly, the data support that the disclosed process using ozone treatment is capable of reducing an initial bioburden by 5 log, i.e., 10^6 to 10^1 CFU/g.

Regarding `O=[O+][O-]` [ozone], the “log reduction of bacteria” value (Example 1 summary, 3.5 or 5 ppm ozone, sampling point 1, after 40 minutes under recirculation) was 1-2 log; the “log reduction of bacteria” value (Example 2 summary, higher ozone injection (25 ppm)) is on record as 4-5 log; the “log reduction of bacteria” value (Example 2 summary, lower concentrations of injected ozone) is on record as 1-2 log. Moreover, the “Log Reduction” value runs as follows: (Example 1 trial T1, sampling point 1, ozone 5.0 ppm, 12% PCC, pH 8.3, 24 °C, 40 minutes under recirculation) 2 log; (Example 1 trial T2, sampling point 1, ozone 5.0 ppm, 28% PCC, pH 7.2, 33 °C, 40 minutes under recirculation) 2 log; (Example 1 trial T3, sampling point 1, ozone 3.5 ppm, 39% PCC, pH 6.9, 33 °C, 40 minutes under recirculation) 1 log; (Example 1 trial T4, sampling point 1, ozone 5.0 ppm, 39% PCC, pH 6.9, 46 °C, 40 minutes under recirculation) 2 log; (Example 2 trial T1, sampling point 1, ozone 7.5 ppm, Recirculation, pH 8.3, 40 minutes) 2 log; (Example 2 trial T2, sampling point 1, ozone 7.5 ppm, Recirculation, pH 7.2, +40 minutes) “+2 log”. Also, the “Log Reduction” value was 1 log (Example 2 trial T3, sampling point 1, ozone 5 ppm, Within Tank, pH 6.9, 40 minutes); 2 log (Example 2 trial T4, sampling point 1, ozone 25 ppm, Recirculation, pH 6.9, 40 minutes); 4-5 log (Example 2 trial T5, sampling point 2, ozone 25 ppm, After initial flow through static mixer, pH 6.9, seconds). Further, the bioburden by setting is: (Example 3 another trial, initial bioburden 8.8×10^5 CFU/g, sampling point 2, seconds after ozone injection) 7.0×10^1 CFU/g; (Example 3 first trial, initial bioburden 3.6×10^6 CFU/g, ozone 5 ppm, after 40 minutes recirculation) 1.7×10^4 CFU/g; (Example 3 first trial, initial bioburden 3.6×10^6 CFU/g, ozone 5 ppm, sampling point 2) 9.1×10^1 CFU/g; (Example 3 third trial, sampling point 1, after ozone treatment and 40 minutes recirculation (mixed with untreated slurry)) 8.8×10^5 CFU/g; (Example 3 third trial, sampling point 2, a few seconds after ozone injection) “less than 10 CFU/g”. In addition, under “Example 3 conclusion, 10^6 to 10^1 CFU/g”, the “reduction of initial bioburden” value is 5 log.
